Patent publication US11618747B2, “LXR modulators with bicyclic core moiety” (OrsoBio, Inc., priority 2018, dated 2023)

molecular target: T1, full length (FL) LXRα (Homo sapiens, UniProt Q13133); experiment: LXR Gal4 reporter transient transfection assay (FL-M2H Gal4α); assay type: cell-based; conditions: HEK293 cells, full length LXRα; read-out: FL-M2H Gal4α (EC50 range)
T1 construct: the full length (FL) proteins of LXRα (amino acids 1-447); NP005684; expressed in transfected cells; host or cells: HEK293
T1 sequence (Q13133 1-447): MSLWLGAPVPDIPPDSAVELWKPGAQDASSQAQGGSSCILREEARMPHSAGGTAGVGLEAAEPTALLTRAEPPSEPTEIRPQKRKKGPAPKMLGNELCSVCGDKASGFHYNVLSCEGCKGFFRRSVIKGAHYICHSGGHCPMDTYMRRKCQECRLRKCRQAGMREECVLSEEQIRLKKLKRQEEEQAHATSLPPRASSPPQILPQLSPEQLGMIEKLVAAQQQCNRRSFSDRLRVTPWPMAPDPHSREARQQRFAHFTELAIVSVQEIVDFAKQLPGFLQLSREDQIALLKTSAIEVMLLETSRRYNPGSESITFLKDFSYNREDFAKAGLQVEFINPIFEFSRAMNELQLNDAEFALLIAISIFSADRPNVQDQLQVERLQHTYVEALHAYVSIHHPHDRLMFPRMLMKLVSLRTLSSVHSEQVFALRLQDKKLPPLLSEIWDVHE
Outline: (§1)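 Luminescence readout: Firefly luciferase driven by GAL4 response elements reports LXR–cofactor interaction, normalised against cotransfected Renilla luciferase. The system used HEK293 cells expressing LXR full length or ligand-binding domain fused to the NFkB activation domain, with SRC1 or NCoR domains on GAL4 DBD; compound exposure was 16 h.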

Compound	EC50 [nM]
N#Cc1cccc(C#N)c1-c1c(-c2cccc(-c3ccc(C(=O)O)cc3Cl)c2)n(S(=O)(=O)c2ccc(C(F)F)cc2)c2ccc(F)cc12 [11/12]	< 100
O=C(O)c1ccc(-c2cccc(-c3c(-c4c(Cl)cccc4Cl)c4cc(F)ccc4n3S(=O)(=O)c3ccc(C(F)F)cc3)c2)c(Cl)c1 [11/13]	< 100
N#Cc1sccc1-c1c(-c2cccc(-c3ccc(C(=O)O)cc3Cl)c2)n(S(=O)(=O)c2ccc(C(F)(F)F)nc2)c2ccc(F)cc12 [11/16]	< 100
O=C(O)c1ccc(-c2cccc(-c3c(-c4ncccc4C(F)(F)F)c4cc(F)ccc4n3S(=O)(=O)c3ccc(C(F)F)cc3)c2)c(Cl)c1 [11/23]	< 100
N#Cc1cccnc1-c1c(-c2cccc(-c3ccc(C(=O)O)cc3Cl)c2)n(S(=O)(=O)c2ccc(C(F)F)cc2)c2ccc(F)cc12 [11/26]	< 100
COc1c(C(=O)O)ccc(-c2cccc(-c3c(-c4ccccc4C#N)c4cc(F)ccc4n3S(=O)(=O)c3ccc(C(F)F)cc3)c2)c1Cl [11/27]	< 100
N#Cc1cccc(C#N)c1-c1c(-c2cccc(-c3ccc(C(=O)O)cc3Cl)c2)n(S(=O)(=O)c2ccc(C(F)(F)F)nc2)c2ccc(F)cc12 [11/37]	< 100
N#Cc1ccccc1-c1c(-c2cccc(-c3ccc(C(=O)O)cc3Cl)c2)n(S(=O)(=O)c2ccc(C(F)F)cc2)c2cnccc12 [11/49]	< 100
N#Cc1cccc(C#N)c1-c1c(-c2cccc(-c3ccc(C(=O)O)cc3F)c2)n(S(=O)(=O)c2ccc(C(F)F)cc2)c2ccc(F)cc12 [11/51]	< 100
N#Cc1cccc(C#N)c1-c1c(-c2cccc(-c3c(F)cc(C(=O)O)cc3F)c2)n(S(=O)(=O)c2ccc(C(F)F)cc2)c2ccc(F)cc12 [11/53]	< 100
N#Cc1cccc(C#N)c1-c1c(-c2cccc(-c3ccc(C(=O)O)cc3Cl)c2)n(S(=O)(=O)C2CCC(F)(F)CC2)c2ccc(F)cc12 [11/63]	< 100
N#Cc1cccc(C#N)c1-c1c(-c2cccc(-c3cc(F)c(C(=O)O)cc3Cl)c2)n(S(=O)(=O)c2ccc(C(F)F)cc2)c2ccc(F)cc12 [11/65]	< 100
N#Cc1cccc(C#N)c1-c1c(-c2cccc(-c3ccc(C(=O)NCC(=O)O)cc3Cl)c2)n(S(=O)(=O)c2ccc(C(F)F)cc2)c2ccc(F)cc12 [21/3]	< 100
Cc1ccc(S(=O)(=O)n2c(-c3cccc(-c4ccc(C(=O)O)cc4)c3)c(-c3ccsc3C#N)c3cc(F)ccc32)cc1C [23/2]	< 100

molecular target: T2, full length (FL) LXRβ (Homo sapiens, UniProt P55055, DUP175-175); experiment: LXR Gal4 reporter transient transfection assay (FL-M2H Gal4β); assay type: cell-based; conditions: HEK293 cells, full length LXRβ; read-out: FL-M2H Gal4β (EC50 range)
T2 construct: the full length (FL) proteins of LXRα (amino acids 1-447); NP005684; NP009052; expressed in transfected cells; host or cells: HEK293
T2 sequence (P55055 with tags, fused parts or gaps DUP175-175): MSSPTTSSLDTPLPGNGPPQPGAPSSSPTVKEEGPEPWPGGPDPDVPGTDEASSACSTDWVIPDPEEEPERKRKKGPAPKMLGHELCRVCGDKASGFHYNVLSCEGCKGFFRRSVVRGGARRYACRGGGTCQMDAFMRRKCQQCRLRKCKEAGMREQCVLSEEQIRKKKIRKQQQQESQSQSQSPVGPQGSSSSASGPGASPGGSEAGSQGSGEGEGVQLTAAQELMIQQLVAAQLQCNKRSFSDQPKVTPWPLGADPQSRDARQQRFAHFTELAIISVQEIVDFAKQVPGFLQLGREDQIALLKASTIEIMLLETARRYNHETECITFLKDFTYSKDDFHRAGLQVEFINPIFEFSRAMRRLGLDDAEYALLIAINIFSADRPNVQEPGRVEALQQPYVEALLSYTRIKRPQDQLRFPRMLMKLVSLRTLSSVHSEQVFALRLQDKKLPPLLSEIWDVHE
Outline: as §1

Compound	EC50 [nM]
Cc1ccc(S(=O)(=O)n2c(-c3cccc(-c4ccc(C(=O)O)cc4)c3)c(-c3ccsc3C#N)c3cc(F)ccc32)cc1 [5/3]	< 100
N#Cc1cccc(C#N)c1-c1c(-c2cccc(-c3ccc(C(=O)O)cc3Cl)c2)n(S(=O)(=O)c2ccc(C(F)F)cc2)c2ccc(F)cc12 [11/12]	< 100
O=C(O)c1ccc(-c2cccc(-c3c(-c4c(Cl)cccc4Cl)c4cc(F)ccc4n3S(=O)(=O)c3ccc(C(F)F)cc3)c2)c(Cl)c1 [11/13]	< 100
N#Cc1sccc1-c1c(-c2cccc(-c3ccc(C(=O)O)cc3Cl)c2)n(S(=O)(=O)c2ccc(C(F)(F)F)nc2)c2ccc(F)cc12 [11/16]	< 100
O=C(O)c1ccc(-c2cccc(-c3c(-c4ncccc4C(F)(F)F)c4cc(F)ccc4n3S(=O)(=O)c3ccc(C(F)F)cc3)c2)c(Cl)c1 [11/23]	< 100
N#Cc1cccnc1-c1c(-c2cccc(-c3ccc(C(=O)O)cc3Cl)c2)n(S(=O)(=O)c2ccc(C(F)F)cc2)c2ccc(F)cc12 [11/26]	< 100
COc1c(C(=O)O)ccc(-c2cccc(-c3c(-c4ccccc4C#N)c4cc(F)ccc4n3S(=O)(=O)c3ccc(C(F)F)cc3)c2)c1Cl [11/27]	< 100
N#Cc1cccc(C#N)c1-c1c(-c2cccc(-c3ccc(C(=O)O)cc3Cl)c2)n(S(=O)(=O)c2ccc(C(F)(F)F)nc2)c2ccc(F)cc12 [11/37]	< 100
N#Cc1ccccc1-c1c(-c2cccc(-c3ccc(C(=O)O)cc3Cl)c2)n(S(=O)(=O)c2ccc(C(F)F)cc2)c2cnccc12 [11/49]	< 100
N#Cc1cccc(C#N)c1-c1c(-c2cccc(-c3ccc(C(=O)O)cc3F)c2)n(S(=O)(=O)c2ccc(C(F)F)cc2)c2ccc(F)cc12 [11/51]	< 100
N#Cc1cccc(C#N)c1-c1c(-c2cccc(-c3c(F)cc(C(=O)O)cc3F)c2)n(S(=O)(=O)c2ccc(C(F)F)cc2)c2ccc(F)cc12 [11/53]	< 100
N#Cc1cccc(C#N)c1-c1c(-c2cccc(-c3ccc(C(=O)O)cc3Cl)c2)n(S(=O)(=O)C2CCC(F)(F)CC2)c2ccc(F)cc12 [11/63]	< 100
N#Cc1cccc(C#N)c1-c1c(-c2cccc(-c3cc(F)c(C(=O)O)cc3Cl)c2)n(S(=O)(=O)c2ccc(C(F)F)cc2)c2ccc(F)cc12 [11/65]	< 100
N#Cc1cccc(C#N)c1-c1c(-c2cccc(-c3ccc(C(=O)NCC(=O)O)cc3Cl)c2)n(S(=O)(=O)c2ccc(C(F)F)cc2)c2ccc(F)cc12 [21/3]	< 100
Cc1ccc(S(=O)(=O)n2c(-c3cccc(-c4ccc(C(=O)O)cc4)c3)c(-c3ccsc3C#N)c3cc(F)ccc32)cc1C [23/2]	< 100
